# Measurements as given in ChEMBL document CHEMBL3739348, “Novel pyrrole derivatives as selective CHK1 inhibitors: design, regioselective synthesis and molecular modeling” (Medchemcomm, 2015).
# How the values were obtained:
# [1] = biological target: Epidermal growth factor receptor (Homo sapiens, UniProt P00533); experiment: Inhibition of EGFR (unknown origin) by microfluidic assay relative to control
# [2] = biological target: Glycogen synthase kinase-3 (Homo sapiens) (UniProt P49840+P49841); experiment: Inhibition of GSK3 (unknown origin) at 30 uM by microfluidic assay relative to control; format: protein assay
# [3] = biological target: Insulin receptor (Homo sapiens) (UniProt P06213); experiment: Inhibition of InsR (unknown origin) at 30 uM by microfluidic assay relative to control
# [4] = biological target: Protein kinase C (PKC) (Homo sapiens) (UniProt O94806+P41743+P17252+P05129+Q05655+P05771+Q05513+Q02156+P24723+Q15139+Q04759); experiment: Inhibition of PKC (unknown origin) at 30 uM by microfluidic assay relative to control
# [5] = biological target: Tyrosine-protein kinase Lck (Homo sapiens) (UniProt P06239); experiment: Inhibition of LCK (unknown origin) at 30 uM by microfluidic assay relative to control
# [6] = biological target: Tyrosine-protein kinase Lyn (Homo sapiens) (UniProt P07948); experiment: Inhibition of LYN (unknown origin) at 30 uM by microfluidic assay relative to control
# [7] = biological target: T1, Serine/threonine-protein kinase Chk1 (Homo sapiens) (UniProt O14757); experiment: Inhibition of CHK1 (unknown origin) at 30 uM by microfluidic assay relative to control
# T1 sequence (whole entry): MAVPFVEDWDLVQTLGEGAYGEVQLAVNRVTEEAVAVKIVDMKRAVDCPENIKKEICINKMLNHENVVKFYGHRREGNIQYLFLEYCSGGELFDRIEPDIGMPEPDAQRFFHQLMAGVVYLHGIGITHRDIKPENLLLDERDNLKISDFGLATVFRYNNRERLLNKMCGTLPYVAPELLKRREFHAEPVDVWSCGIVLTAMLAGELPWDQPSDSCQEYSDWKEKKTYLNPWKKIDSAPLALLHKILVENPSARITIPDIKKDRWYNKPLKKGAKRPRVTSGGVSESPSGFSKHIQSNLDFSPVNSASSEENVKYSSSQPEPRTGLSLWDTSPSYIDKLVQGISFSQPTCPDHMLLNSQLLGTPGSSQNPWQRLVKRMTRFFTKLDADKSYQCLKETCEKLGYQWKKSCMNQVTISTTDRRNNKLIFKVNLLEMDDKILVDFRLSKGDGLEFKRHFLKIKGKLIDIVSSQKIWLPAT
# [8] = biological target: Mitogen-activated protein kinase 14 (Homo sapiens) (UniProt Q16539); experiment: Inhibition of p38a (unknown origin) at 30 uM by microfluidic assay relative to control
# [9] = biological target: Mitogen-activated protein kinase 1 (Homo sapiens) (UniProt P28482); experiment: Inhibition of Erk2 (unknown origin) at 30 uM by microfluidic assay relative to control
# [10] = biological target: Hepatocyte growth factor receptor (Homo sapiens) (UniProt P08581); experiment: Inhibition of MET (unknown origin) at 30 uM by microfluidic assay relative to control
# [11] = biological target: Tyrosine-protein kinase ABL1 (Homo sapiens) (UniProt P00519); experiment: Inhibition of ABL (unknown origin) at 30 uM by microfluidic assay relative to control
# [12] = biological target: Proto-oncogene tyrosine-protein kinase Src (Homo sapiens) (UniProt P12931); experiment: Inhibition of SRC (unknown origin) at 30 uM by microfluidic assay relative to control
# [13] = biological target: Mitogen-activated protein kinase 3 (Homo sapiens) (UniProt P27361); experiment: Inhibition of Erk1 (unknown origin) at 30 uM by microfluidic assay relative to control
# [14] = biological target: Tyrosine-protein kinase Fyn (Homo sapiens) (UniProt P06241); experiment: Inhibition of FYN (unknown origin) at 30 uM by microfluidic assay relative to control
# [15] = biological target: T2, Serine/threonine-protein kinase Chk1 (Homo sapiens, UniProt O14757); experiment: Inhibition of CHK1 (unknown origin) by microfluidic assay relative to control
# T2 sequence (O14757 whole entry): T1 sequence (whole entry)
# Sequence of Epidermal growth factor receptor (P00533 whole entry): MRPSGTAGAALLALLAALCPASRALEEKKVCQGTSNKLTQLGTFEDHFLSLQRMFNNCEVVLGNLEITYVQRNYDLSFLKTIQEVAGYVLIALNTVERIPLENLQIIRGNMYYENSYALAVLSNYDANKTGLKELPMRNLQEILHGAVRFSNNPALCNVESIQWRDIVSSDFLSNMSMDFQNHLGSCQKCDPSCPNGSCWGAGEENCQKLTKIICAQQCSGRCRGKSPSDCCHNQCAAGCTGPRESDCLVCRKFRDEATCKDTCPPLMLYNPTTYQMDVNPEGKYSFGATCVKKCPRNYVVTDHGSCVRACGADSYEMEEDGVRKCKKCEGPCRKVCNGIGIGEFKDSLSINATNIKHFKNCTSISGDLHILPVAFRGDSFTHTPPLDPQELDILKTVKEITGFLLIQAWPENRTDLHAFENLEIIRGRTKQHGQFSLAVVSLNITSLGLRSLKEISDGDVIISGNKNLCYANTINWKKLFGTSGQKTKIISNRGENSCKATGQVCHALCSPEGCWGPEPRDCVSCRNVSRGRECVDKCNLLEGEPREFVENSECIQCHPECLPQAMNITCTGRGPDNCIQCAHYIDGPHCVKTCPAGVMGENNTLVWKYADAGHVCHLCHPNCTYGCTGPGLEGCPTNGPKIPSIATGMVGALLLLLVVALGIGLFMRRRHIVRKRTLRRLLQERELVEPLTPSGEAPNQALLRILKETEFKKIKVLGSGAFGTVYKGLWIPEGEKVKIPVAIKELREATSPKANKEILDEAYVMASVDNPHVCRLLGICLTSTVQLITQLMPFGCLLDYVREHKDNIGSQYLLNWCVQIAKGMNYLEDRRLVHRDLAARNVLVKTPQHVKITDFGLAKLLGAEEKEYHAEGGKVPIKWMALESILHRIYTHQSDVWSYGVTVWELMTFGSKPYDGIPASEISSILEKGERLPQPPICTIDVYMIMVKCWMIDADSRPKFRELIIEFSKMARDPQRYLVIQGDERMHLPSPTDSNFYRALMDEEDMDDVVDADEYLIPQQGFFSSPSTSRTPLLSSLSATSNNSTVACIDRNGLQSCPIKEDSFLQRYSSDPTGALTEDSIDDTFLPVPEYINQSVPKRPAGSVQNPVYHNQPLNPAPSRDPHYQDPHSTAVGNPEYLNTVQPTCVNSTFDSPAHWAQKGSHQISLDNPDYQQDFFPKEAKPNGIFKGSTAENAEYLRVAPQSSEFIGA
# Sequence of Glycogen synthase kinase-3 (Homo sapiens) (P49840 whole entry, looked up): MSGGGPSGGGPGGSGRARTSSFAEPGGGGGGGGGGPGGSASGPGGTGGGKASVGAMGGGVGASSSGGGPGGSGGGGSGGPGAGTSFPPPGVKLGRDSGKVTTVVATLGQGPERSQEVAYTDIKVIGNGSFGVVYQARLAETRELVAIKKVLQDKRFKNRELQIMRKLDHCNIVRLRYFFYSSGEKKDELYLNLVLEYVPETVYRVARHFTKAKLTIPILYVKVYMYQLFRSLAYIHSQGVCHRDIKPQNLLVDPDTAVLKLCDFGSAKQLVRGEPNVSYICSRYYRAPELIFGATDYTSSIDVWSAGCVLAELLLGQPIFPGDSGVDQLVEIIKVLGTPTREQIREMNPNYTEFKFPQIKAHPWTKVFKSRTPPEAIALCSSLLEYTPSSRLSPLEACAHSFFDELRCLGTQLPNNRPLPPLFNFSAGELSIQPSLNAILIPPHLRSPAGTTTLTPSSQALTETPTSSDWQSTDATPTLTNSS
# Sequence of Glycogen synthase kinase-3 (Homo sapiens) (P49841 whole entry, looked up): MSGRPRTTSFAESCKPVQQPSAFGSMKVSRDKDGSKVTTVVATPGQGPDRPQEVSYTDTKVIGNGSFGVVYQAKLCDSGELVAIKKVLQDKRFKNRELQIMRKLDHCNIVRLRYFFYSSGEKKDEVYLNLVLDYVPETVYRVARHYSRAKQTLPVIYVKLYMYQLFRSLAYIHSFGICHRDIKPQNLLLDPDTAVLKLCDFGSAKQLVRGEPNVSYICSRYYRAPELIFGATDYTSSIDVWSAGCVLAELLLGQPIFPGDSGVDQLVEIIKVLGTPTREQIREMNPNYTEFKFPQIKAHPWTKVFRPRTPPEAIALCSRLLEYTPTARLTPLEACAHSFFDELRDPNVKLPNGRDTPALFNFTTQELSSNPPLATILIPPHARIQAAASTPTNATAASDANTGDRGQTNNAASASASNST
# Sequence of Insulin receptor (Homo sapiens) (P06213 28-758 limits assumed): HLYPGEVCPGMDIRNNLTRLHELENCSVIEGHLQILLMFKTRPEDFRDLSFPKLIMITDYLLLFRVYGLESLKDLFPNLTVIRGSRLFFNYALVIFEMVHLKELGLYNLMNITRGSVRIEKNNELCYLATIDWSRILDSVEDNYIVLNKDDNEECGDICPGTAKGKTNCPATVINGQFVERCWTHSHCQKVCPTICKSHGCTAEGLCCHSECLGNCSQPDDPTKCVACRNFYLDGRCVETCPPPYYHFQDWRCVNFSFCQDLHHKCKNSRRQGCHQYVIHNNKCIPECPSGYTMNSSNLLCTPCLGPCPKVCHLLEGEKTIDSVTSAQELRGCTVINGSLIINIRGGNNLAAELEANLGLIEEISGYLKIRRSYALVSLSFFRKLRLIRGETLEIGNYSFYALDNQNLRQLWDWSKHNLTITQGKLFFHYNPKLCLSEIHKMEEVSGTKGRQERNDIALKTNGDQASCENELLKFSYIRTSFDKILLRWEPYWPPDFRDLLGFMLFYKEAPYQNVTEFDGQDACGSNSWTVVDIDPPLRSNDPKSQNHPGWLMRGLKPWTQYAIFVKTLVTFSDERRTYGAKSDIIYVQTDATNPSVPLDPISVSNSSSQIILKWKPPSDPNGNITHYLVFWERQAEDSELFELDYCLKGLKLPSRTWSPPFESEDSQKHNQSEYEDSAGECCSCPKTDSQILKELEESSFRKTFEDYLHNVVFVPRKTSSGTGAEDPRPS
# Sequence of Insulin receptor (Homo sapiens) (P06213 763-1382 limits assumed): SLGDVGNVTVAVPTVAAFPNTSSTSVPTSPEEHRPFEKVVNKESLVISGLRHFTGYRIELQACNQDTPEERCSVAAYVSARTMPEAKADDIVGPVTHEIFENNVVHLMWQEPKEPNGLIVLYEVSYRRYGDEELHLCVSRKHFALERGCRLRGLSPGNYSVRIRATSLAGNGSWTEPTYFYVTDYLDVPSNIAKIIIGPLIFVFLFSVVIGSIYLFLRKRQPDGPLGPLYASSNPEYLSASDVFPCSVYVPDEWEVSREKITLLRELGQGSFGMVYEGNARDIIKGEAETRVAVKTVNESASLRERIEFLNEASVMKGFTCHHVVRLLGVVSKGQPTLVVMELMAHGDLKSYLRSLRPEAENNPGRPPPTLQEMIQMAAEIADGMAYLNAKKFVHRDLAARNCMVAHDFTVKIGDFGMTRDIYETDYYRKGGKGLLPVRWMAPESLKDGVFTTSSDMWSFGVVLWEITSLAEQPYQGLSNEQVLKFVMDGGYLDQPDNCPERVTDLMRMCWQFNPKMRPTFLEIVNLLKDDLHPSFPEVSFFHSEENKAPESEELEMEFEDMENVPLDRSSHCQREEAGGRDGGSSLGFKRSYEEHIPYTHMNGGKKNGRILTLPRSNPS
# Sequence of Proto-oncogene tyrosine-protein kinase Src (Homo sapiens) (P12931 2-536 limits assumed): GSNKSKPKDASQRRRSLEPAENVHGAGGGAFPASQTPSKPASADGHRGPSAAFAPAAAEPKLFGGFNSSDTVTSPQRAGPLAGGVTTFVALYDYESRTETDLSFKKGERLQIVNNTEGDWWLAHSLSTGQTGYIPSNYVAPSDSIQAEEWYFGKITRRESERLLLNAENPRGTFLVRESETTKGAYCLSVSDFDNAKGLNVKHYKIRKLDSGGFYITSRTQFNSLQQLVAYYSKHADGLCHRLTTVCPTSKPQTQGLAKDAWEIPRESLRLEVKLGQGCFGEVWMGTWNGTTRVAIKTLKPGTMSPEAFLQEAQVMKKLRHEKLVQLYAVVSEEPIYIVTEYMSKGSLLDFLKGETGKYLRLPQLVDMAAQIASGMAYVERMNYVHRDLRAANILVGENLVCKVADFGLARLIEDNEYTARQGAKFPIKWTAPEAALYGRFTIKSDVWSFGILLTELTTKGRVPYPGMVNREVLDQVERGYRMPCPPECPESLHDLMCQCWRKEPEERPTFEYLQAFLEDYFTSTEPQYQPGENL
# Sequence of Mitogen-activated protein kinase 14 (Homo sapiens) (Q16539 whole entry): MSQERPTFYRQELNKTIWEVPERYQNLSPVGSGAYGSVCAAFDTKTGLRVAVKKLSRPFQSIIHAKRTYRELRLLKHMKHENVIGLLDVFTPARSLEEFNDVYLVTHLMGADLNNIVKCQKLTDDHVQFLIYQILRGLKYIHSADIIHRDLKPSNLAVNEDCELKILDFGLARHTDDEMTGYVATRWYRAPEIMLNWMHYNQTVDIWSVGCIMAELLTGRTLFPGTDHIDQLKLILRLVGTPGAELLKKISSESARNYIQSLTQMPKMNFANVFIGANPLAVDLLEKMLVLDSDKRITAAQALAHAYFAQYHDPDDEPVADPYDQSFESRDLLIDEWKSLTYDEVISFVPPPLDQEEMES
# Sequence of Mitogen-activated protein kinase 1 (Homo sapiens) (P28482 whole entry): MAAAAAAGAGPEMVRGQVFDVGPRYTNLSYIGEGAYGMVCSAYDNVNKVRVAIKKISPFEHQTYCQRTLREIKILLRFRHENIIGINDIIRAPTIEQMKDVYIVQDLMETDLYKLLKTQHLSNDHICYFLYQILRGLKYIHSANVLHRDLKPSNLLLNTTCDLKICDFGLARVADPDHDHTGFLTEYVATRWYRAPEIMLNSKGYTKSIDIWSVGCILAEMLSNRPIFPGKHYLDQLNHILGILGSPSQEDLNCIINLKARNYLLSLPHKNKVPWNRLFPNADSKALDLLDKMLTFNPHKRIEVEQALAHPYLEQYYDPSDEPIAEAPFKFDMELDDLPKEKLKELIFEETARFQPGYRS
IC50 [1],inhibition [2],inhibition [3],inhibition [4],inhibition [5],inhibition [6],inhibition [7],inhibition [8],inhibition [9],inhibition [10],inhibition [11],inhibition [12],inhibition [13],inhibition [14],IC50 [15],Compound
2890 nM,2%,3%,65%,34%,33%,80%,32%,4%,22%,2%,12%,5%,21%,780 nM,Cc1[nH]c(-c2ccccc2)c(-c2ccccc2)c1-c1ccc(NC(=O)c2ccccc2)c(=O)o1
3220 nM,13%,2%,12%,23%,5%,85%,2%,32%,6%,2%,23%,7%,21%,670 nM,CCOC(=O)c1nn(-c2ccccc2)cc1C(=O)c1c(C)[nH]c(-c2ccccc2)c1-c1ccccc1
3670 nM,3%,2%,32%,32%,21%,90%,24%,3%,32%,3%,32%,4%,23%,450 nM,Cc1[nH]c(-c2ccccc2)c(-c2ccccc2)c1C(=O)c1coc2ccc(O)cc12
2560 nM,3%,4%,67%,44%,24%,78%,12%,35%,45%,3%,12%,7%,21%,910 nM,Cc1[nH]c(-c2ccccc2)c(-c2ccccc2)c1C(=O)c1cn(-c2ccccc2)nc1-c1ccccc1
4670 nM,12%,2%,33%,22%,3%,100%,3%,21%,32%,2%,21%,3%,2%,120 nM,CC(=O)c1nn(-c2ccccc2)cc1C(=O)c1c(C)[nH]c(-c2ccccc2)c1-c1ccccc1
3890 nM,2%,1%,13%,43%,3%,83%,4%,32%,5%,1%,43%,6%,12%,700 nM,Cc1[nH]c(-c2ccccc2)c(-c2ccccc2)c1-c1nnc(C)c2nn(-c3ccccc3)cc12
